The source of these data is ChEMBL document CHEMBL3507680, “University of Dundee, Gates Library screen for HepG2 cell viability”.

The data set is described as follows: Human HepG2 cell viability assay in 384 well format. The data set is classed as toxicity, cell-based. Set-up: dose 125 nL, time 70.5 hour; cytotoxicity at 70.5 h: concentration not given beside the values. To be noted: HepG2 cells, read-out: Inhibition.

Each structure is given as a SMILES string.

For `CCn1ccnc1CN(C)c1cc(OC)ncn1`, the cytotoxicity at 70.5 h was -8.04%.

Take `Cc1cc(C)c2nc(CNCCNS(C)(=O)=O)cc(O)c2c1`: the cytotoxicity at 70.5 h is -2.21%.

For `Cn1cc2ncn(CCC3CCN(Cc4ccccc4)C3)c(=O)c2n1` (stereo not drawn), the cytotoxicity at 70.5 h is -7%.

Consider `CC(=O)Cc1c(C)nn(-c2cncc(C(N)=O)c2)c1C`, for which the cytotoxicity at 70.5 h was -9.56%.

Turning to `CSCC[C@H](NC(C)=O)c1nc(CC(C)C)n[nH]1`, the cytotoxicity at 70.5 h turned out to be 7.09%.

In the case of `CCOCCC(=O)NCC1COc2c(cccc2OC)C1` (stereo not drawn), the cytotoxicity at 70.5 h was -4.38%.

Consider `Cc1noc(C)c1CN(C)C(=O)c1cnc(C2CC2)nc1O`, for which the cytotoxicity at 70.5 h was determined as 8.69%.

In the case of `CCC(C(=O)NC1CCCCC1)n1ccc2ncccc2c1=O` (stereo not drawn), the cytotoxicity at 70.5 h is -11.8%.

On to `O=C(Nc1ccccc1-c1ccccc1)N1C[C@@H]2CNC[C@]2(C(=O)O)C1`, for which the cytotoxicity at 70.5 h was -2.53%.

On to `CCC(CO)N(Cc1ccsc1)Cc1c(C)nn(C)c1Cl` (stereo not drawn), for which the cytotoxicity at 70.5 h was -5.33%.

Take `Cc1cc(CN[C@H](C(N)=O)[C@@H](C)O)c(C)s1`: the cytotoxicity at 70.5 h is -3.69%.

Regarding `O=C(O)CC1COCCN1C(=O)C1(c2ccc(Cl)cc2)CCC1` (stereo not drawn), the cytotoxicity at 70.5 h is 5.66%.

Turning to `CCC(=O)N1CCN(C(=O)c2ccc(COC)o2)[C@H]2CS(=O)(=O)C[C@H]21`, the cytotoxicity at 70.5 h was -5.66%.

`CC1CCCCN1C1CN(C(=O)c2sccc2S(N)(=O)=O)C1` (stereo not drawn): the cytotoxicity at 70.5 h was -2.85%.

Regarding `CC(C)c1cc(C(=O)N2CCCC(Cn3cc(CO)nn3)C2)on1` (stereo not drawn), the cytotoxicity at 70.5 h was -2.32%.

As to `CN(CCCc1nccn1C)c1nccc(-c2cc(C(=O)O)ccn2)n1`, the cytotoxicity at 70.5 h is -3.33%.

For the compound `CN1CCc2[nH]nc(C(=O)N3CCCC4(CN(C)C(=O)O4)C3)c2C1` (stereo not drawn), the cytotoxicity at 70.5 h was -6.4%.

For `O=C(NCCc1c[nH]cn1)C1CCCN(C2CCOCC2)C1` (stereo not drawn), the cytotoxicity at 70.5 h is -5.69%.

Turning to `CCN(CC)C(CNCc1ccc(C)o1)c1ccco1` (stereo not drawn), the cytotoxicity at 70.5 h is -11.7%.

As to `Cc1nnsc1CN1C[C@H]2CC[C@@H]1CN(Cc1ccc(F)cc1)C2`, the cytotoxicity at 70.5 h was 27.1%.

As for `CN(Cc1ccccc1)C1(C(=O)NCC(N)=O)Cc2ccccc2C1`, the cytotoxicity at 70.5 h is 5.7%.

For `O=C1NC(C(=O)NCc2cccnc2Oc2ccc(F)c(F)c2)CO1` (stereo not drawn), the cytotoxicity at 70.5 h is -21.4%.

Regarding `COc1cc2c(cc1-c1nc3c(cnn3C)[nH]1)OCO2`, the cytotoxicity at 70.5 h was 12.3%.

In the case of `Cc1nc(N(C)C)nc(NCCc2ccccn2)c1C`, the cytotoxicity at 70.5 h is -9.09%.

Consider `CCC(=O)N1CCN(C(=O)Nc2cccc(F)c2)[C@H]2CS(=O)(=O)C[C@H]21`, for which the cytotoxicity at 70.5 h is -2.91%.

On to `CCOCC1CCN(C(=O)C(c2ccc(F)cc2)N(C)C)CC1` (stereo not drawn), for which the cytotoxicity at 70.5 h is -8%.

Regarding `Nc1nc(CCCNC(=O)c2ccccc2C2CCNC2)cs1` (stereo not drawn), the cytotoxicity at 70.5 h was -20.9%.

For `COc1cccc([C@H]2CN(C(=O)c3nnc4n3CCCC4)C[C@@H]2N)c1`, the cytotoxicity at 70.5 h was -3.91%.

With `CC(C)C1CN(Cc2cnc(N(C)C)nc2)CCCN1CC1CC1` (stereo not drawn), the cytotoxicity at 70.5 h was -10%.

Regarding `CCSc1ncc(-c2cc(C3CC3)nc(N)c2C#N)cn1`, the cytotoxicity at 70.5 h was -4.52%.

Regarding `c1cn(CCc2c[nH]cn2)c(-c2cc(CN3CCCC3)cs2)n1`, the cytotoxicity at 70.5 h was -9.06%.

For `COCCC1(CO)CCCN(C(=O)c2cccnc2O)C1` (stereo not drawn), the cytotoxicity at 70.5 h was -3.89%.

Consider `CNS(=O)(=O)c1ccc(CN2CCC(c3ccncc3)CC2)cc1`, for which the cytotoxicity at 70.5 h was -14.4%.

Consider `Cc1ccc(CN2CCN(C3CCC3)CC2CCO)o1` (stereo not drawn), for which the cytotoxicity at 70.5 h is -10.1%.

On to `CCN(C)C(=O)c1cccc(S(=O)(=O)NCCc2csc(N)n2)c1`, for which the cytotoxicity at 70.5 h was 19.2%.

As to `O=C1C[C@H]2CC[C@@H](CN1)N2C(=O)CCc1ccccc1`, the cytotoxicity at 70.5 h is -8.36%.

Turning to `CCN(CC)CCn1cnc(-c2ccccc2)c1-c1cnc(C)s1`, the cytotoxicity at 70.5 h is -7.41%.

As for `CC(C)=CCC/C(C)=C/CN1CCN(C)C2(CCNC(=O)CC2)C1` (stereo not drawn), the cytotoxicity at 70.5 h was -9.38%.

For `CN(C)c1ccc(-c2cccc(-c3ccn(CCCO)n3)c2)nn1`, the cytotoxicity at 70.5 h was -3.34%.

For the compound `CCCSc1ncc(C2CC(=O)NCc3nc4ccccn4c32)cn1` (stereo not drawn), the cytotoxicity at 70.5 h was -3.19%.

On to `CC(C)c1nccc(CN2CCCC(O)(CN(C)C)CC2)n1` (stereo not drawn), for which the cytotoxicity at 70.5 h was -7.74%.

Consider `CCN1CC(C(=O)NCCc2csc(-c3ccncc3)n2)CC1=O` (stereo not drawn), for which the cytotoxicity at 70.5 h was -4.27%.

On to `COC(=O)c1cccc(-c2nc(CC3CCN(C)CC3)no2)c1`, for which the cytotoxicity at 70.5 h is -3.78%.

As to `Cn1cc(CN2CCCN(CCCc3ccccc3)CC2)cn1`, the cytotoxicity at 70.5 h is -15.4%.

For the compound `CC(C)n1ccnc1Cn1ccc2ncccc2c1=O`, the cytotoxicity at 70.5 h was -0.693%.

In the case of `CC(C)C1CN(S(=O)(=O)N2CCCC2)CCCN1Cc1ccc(F)cc1` (stereo not drawn), the cytotoxicity at 70.5 h is -3.07%.

In the case of `COc1nc2c(cc1C(=O)N(C)Cc1[nH]nc3c1CCC3)CCC2`, the cytotoxicity at 70.5 h worked out at 27.9%.

Turning to `COCc1cc(NCc2cccnc2Oc2ccc(C)nc2)ncn1`, the cytotoxicity at 70.5 h was -12.4%.

For the compound `CC(C)[C@@H]1CN(C(=O)NCCc2ccccc2)C[C@H]1NS(=O)(=O)N(C)C`, the cytotoxicity at 70.5 h was 2.29%.

`Cc1ccccc1N1CCN(C(=O)CSc2ccncc2)CC1=O`: the cytotoxicity at 70.5 h is -8.48%.

`N#Cc1cccc(C(=O)N2C[C@H]3CC[C@@H]2CN(C(=O)C2CCC2)C3)c1`: the cytotoxicity at 70.5 h was -4.08%.

On to `CCNc1ncc(CN2CCOC(Cc3cccc(OC)c3)C2)cn1` (stereo not drawn), for which the cytotoxicity at 70.5 h is -2.81%.

`NCCC1CN(Cc2cnc3c(-c4ccccc4)cnn3c2)CCO1` (stereo not drawn): the cytotoxicity at 70.5 h was -2.68%.

As to `CCN1CCC[C@@H]1CNC(=O)c1cc(COc2ccccc2)[nH]n1`, the cytotoxicity at 70.5 h is -1.42%.

Take `O=C(O)c1ccc(C2CCCN(Cc3ccc(-c4cc[nH]n4)o3)C2)cc1` (stereo not drawn): the cytotoxicity at 70.5 h worked out at 16.9%.

Turning to `c1cc(CNc2ccc(-c3nc(C4CC4)no3)cn2)no1`, the cytotoxicity at 70.5 h was -8.43%.

Regarding `CCN1CCC(N[C@@H]2CC[C@@H]2NC(=O)Cc2csc(C)n2)CC1`, the cytotoxicity at 70.5 h was -1.08%.

On to `O=C(CN1CCOCC1)N(c1ccccc1)c1ccccc1`, for which the cytotoxicity at 70.5 h was -11.2%.

Take `CNCc1cn(C2CCN(CCC(C)c3ccccc3)CC2)nn1` (stereo not drawn): the cytotoxicity at 70.5 h was determined as 21.7%.

Take `Cn1ncc2c(N3CC[C@H](O)C3)nc(-c3ccncc3)nc21`: the cytotoxicity at 70.5 h was -15.7%.

For `O=C(CC[C@@H]1CCCN2CCCC[C@H]12)NCCc1nc(O)cc(O)n1`, the cytotoxicity at 70.5 h was -5.7%.

For the compound `CC(Nc1ncnc2c1CCNC2)c1ccc2c(c1)CCCC2` (stereo not drawn), the cytotoxicity at 70.5 h is -2.47%.

Regarding `CCCn1nc(C)c(CNS(=O)(=O)NCc2ccccc2)c1C`, the cytotoxicity at 70.5 h is -12.7%.

For the compound `CC(C)CCN1CC2(CCCN(C(=O)NCc3cccs3)C2)CCC1=O` (stereo not drawn), the cytotoxicity at 70.5 h was -2.43%.

For `COc1ccc(OCCCN(C)C(=O)C2CCCN2C(N)=O)cc1` (stereo not drawn), the cytotoxicity at 70.5 h is -3.9%.

On to `COc1cccc(OC2CN(C(=O)CCn3cnnn3)C2)c1`, for which the cytotoxicity at 70.5 h is -10.5%.

On to `CC1CCCCN1C1CN(c2ccnc(C(=O)NCc3ccco3)c2)C1` (stereo not drawn), for which the cytotoxicity at 70.5 h was -15.4%.

In the case of `CCCn1c(C)c(CC(=O)NCC(N)=O)c2c1CC(C)(C)CC2=O`, the cytotoxicity at 70.5 h was determined as 0.554%.

For the compound `O=C(Cc1c[nH]c(=O)[nH]c1=O)N1CCCCC1CCc1cccc(O)c1` (stereo not drawn), the cytotoxicity at 70.5 h was -5.29%.

In the case of `CCCN(Cc1cnc2ccccc2n1)Cc1ccccc1OC`, the cytotoxicity at 70.5 h is -7.09%.

For the compound `COc1ccc(S(=O)(=O)N[C@H]2CN(C(C)=O)C[C@@H]2C2CC2)cc1C`, the cytotoxicity at 70.5 h is -14.2%.

With `COc1ccc(-c2nc3c([nH]2)CCNC3)c(OC)c1OC`, the cytotoxicity at 70.5 h was 1.85%.

Consider `Cc1cc(CN(C)C(=O)CN2CC3(CCNCC3)OC2=O)no1`, for which the cytotoxicity at 70.5 h is -15.9%.

As for `CCOCCCNCc1cc(O)c2cc(C)ccc2n1`, the cytotoxicity at 70.5 h was 22.7%.

As for `CC(C)c1cc(NC2CCN(C(=O)N3CCCC3)CC2)ncn1`, the cytotoxicity at 70.5 h came out at 12.6%.

Take `O=C(NCCc1c[nH]cn1)C1CCCN(Cc2ccco2)C1` (stereo not drawn): the cytotoxicity at 70.5 h is -1.6%.

With `CC(Cc1cn(CCc2nnn[nH]2)nn1)c1ccccc1` (stereo not drawn), the cytotoxicity at 70.5 h was -5.17%.

For `Cc1ccc(CN(CCCO)Cc2nc3ccccc3[nH]2)s1`, the cytotoxicity at 70.5 h is -3.29%.

As for `CC(=O)c1ccc(C(=O)N2C[C@@H](CN3CCCC3)[C@@H](CO)C2)cc1`, the cytotoxicity at 70.5 h was determined as 12.4%.

Turning to `CCc1cc(CN(C)Cc2nc(-c3sccc3C)oc2C)on1`, the cytotoxicity at 70.5 h is -9.39%.

On to `CC(C(=O)N1CCC(c2[nH]ncc2-c2ccccc2)CC1)n1cncn1` (stereo not drawn), for which the cytotoxicity at 70.5 h is -9.13%.

Take `O=C1CCC2(CCCO2)CCN1Cc1noc(C2CCCC2)n1` (stereo not drawn): the cytotoxicity at 70.5 h was determined as 0.738%.

On to `CN1CC(c2ccccc2)CC2(CCN(C(=O)c3cccnn3)CC2)C1` (stereo not drawn), for which the cytotoxicity at 70.5 h was -4.99%.

Turning to `C[C@H](NC(=O)C1(N(C)Cc2ccccc2)Cc2ccccc2C1)C(N)=O`, the cytotoxicity at 70.5 h was -2.36%.

For the compound `Cc1ccccc1CN1CCN(C(=O)c2cnc(C3CC3)[nH]c2=O)CC1`, the cytotoxicity at 70.5 h stood at 7.92%.

`CSc1ccc(CN(CCO)C(=O)CCOc2ccccc2)cc1`: the cytotoxicity at 70.5 h is -7.56%.

`O=C1N(CCCc2ccccc2)CCCC12CCN(C(CO)CO)C2` (stereo not drawn): the cytotoxicity at 70.5 h was -4.16%.

As for `Cc1nonc1OCCNc1ncnc2sc3c(c12)CCNC3`, the cytotoxicity at 70.5 h is -3.76%.

On to `CC(C)=CCN1CC2(CCN(Cc3cccc(C#N)c3)CC2)CC1=O`, for which the cytotoxicity at 70.5 h stood at 8.66%.

Regarding `Cc1cc(C)n(-c2ccc(C(=O)NCC(CO)Cc3ccco3)cc2)n1` (stereo not drawn), the cytotoxicity at 70.5 h was -7.33%.

Regarding `CN1CCN(Cc2nc3c(s2)CCCC3)[C@H]2CS(=O)(=O)C[C@H]21`, the cytotoxicity at 70.5 h amounted to 1.26%.

With `O=c1[nH]c(COc2cccc(F)c2)nc2c1CCNC2`, the cytotoxicity at 70.5 h is -17%.

Regarding `O=C(N[C@@H]1CCN(Cc2cc3ccccc3s2)C[C@H]1O)c1cccnc1`, the cytotoxicity at 70.5 h is -3.4%.

With `CN(C)S(=O)(=O)NCc1cccnc1Oc1ccccc1`, the cytotoxicity at 70.5 h was -6.53%.

Regarding `c1ccc(CN2CCC(CNc3ncnc4c3CCNCC4)CC2)cc1`, the cytotoxicity at 70.5 h is 0.757%.

For the compound `CN(C)CCCN1CC2(CCN(C(=O)C3(C)CCCCO3)CC2)OC1=O` (stereo not drawn), the cytotoxicity at 70.5 h is 17.7%.

Consider `Cc1cccnc1NCCNC(=O)C1CCN(Cc2ccco2)CC1`, for which the cytotoxicity at 70.5 h turned out to be 9.3%.

As to `CN1CCC2(CC1)CN(Cc1ccc(C3CCCCO3)o1)CCCN2C` (stereo not drawn), the cytotoxicity at 70.5 h is -4.97%.
